As a reminder, the inhibition is the relative decrease from the control value, in per cent. A higher inhibition goes with a response far below the control.

For one test, the system named is MCR5 cell line. The test can be described thus: intracellular F-actin polymerization, TGF-β1-treated cells, confocal microscope. Format: cell-based. As to conditions: 10 μM along with TGF-β1 (10 ng/mL), 48 hours (FIGS. 2A and 2B). From the text:
F-actin polymerization activates transcription factors involved in the activation of myofibroblasts and the initiation of fibrosis. Accordingly, when F-actin polymerization decreases, the expression of fibrosis-causing genes by the transcription factors may be inhibited, and the activation and fibrosis of muscle fiber cells may be reduced. Therefore, in this example, it was confirmed whether the compounds according to the present invention are effective in inhibiting F-actin polymerization.
An MCR5 cell line was dispensed at 1×10^3 cells/well in a 96-well black micro plate and cultured in Medium 1 (10% FBS-containing MEM) in 5% CO2 at 37° C. for 24 hours. Subsequently, the above medium was exchanged with Medium 2 (0.5% FBS-containing MEM), a compound of the present invention was treated at 10 μM along with TGF-β1 (10 ng/mL), and the cells were incubated for 48 hours. After removing the entire batch, the cells were treated with each of CellMask Orange Actin Tracking Stain (Invitrogen) and NucBlue Live ReadyProbes (Invitrogen) to performing F-actin and cell nucleus staining in accordance with the manufacturer's recommended conditions. Cells treated with the staining reagents were incubated for 30 minutes at 5% CO2 and 37° C. while blocking light. After completing the incubation, the staining reagents were removed, fresh Medium 1 was added to the cells at 100 μL/well, and then the cells were incubated for 5 minutes, followed by removal of the medium. The above process was repeated three times. To observe the stained F-actin and cell nucleus, PBS was added to the plate at 100 μL/well, and then the cells were photographed using a confocal microscope (Leica) and analyzed using Image J software.

A further test concerns Arp2/3 complex. The test can be described thus: in vitro actin polymerization test (pyrene-labeled actin). As to conditions: 10 μM, VCA domain protein, spherical actin monomers, 1 hour, compared to control (FIG. 1). In kind it is biochemical. The protocol:
Although actin polymerization, which is a process of forming actin filaments from actin monomers, is involved in controlling cell movement, tissue fibrosis may be caused by the promotion of excessive α-SMA expression and induction of myofibroblast activation. Accordingly, an in vitro actin polymerization test was performed to confirm the actin polymerization controlling function of the compounds according to the present invention.
Specifically, a pyrene-labeled spherical actin stock was diluted with general actin buffer (5 mM Tris-HCl pH 8.0, 0.2 mM CaCl2)) and incubated at 4° C. for 1 hour, thereby producing spherical actin monomers. Afterward, 80% of a supernatant was recovered by centrifugation at 20,000×g and 4° C. for 3 hours, and 0.1 mg/mL spherical actin monomers were prepared. The Arp2/3 complex, the VCA domain protein, and Compound 12, 38, or 59 (10 μM each) according to the present invention were added to the spherical actin monomers and an actin polymerization buffer and reacted at room temperature for 1 hour. The increased fluorescence intensity during the reaction from the spherical actin monomer to a fibrous actin polymer was measured using a microplate reader at an excitation wavelength of 360 nm and an emission wavelength of 407 nm. The degree of actin polymerization was shown relative to the maximum polymerization rate (arbitrary units).

Test [1] has as its system α-SMA. The test can be described thus: α-SMA expression inhibitory ability in MRC5 cell line (Western blotting). In kind it is cell-based. Conditions: TGF-β1 (10 ng/mL), 72 hours, relative to TGF-β1 only. The method, boiled down: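 MRC5 cells given compound at 10 μM, then TGF-β1 (10 ng/mL) 2 h later; after 72 h, lysates probed for α-SMA by Western blot. Inhibition is α-SMA level relative to TGF-β1 alone, binned A ≥70%, B 50–<70%, C <50%.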

In another test the test system is fibronectin. The test can be described thus: fibronectin protein level by Western blotting in TGF-β1-treated fibroblasts. Conditions: MRC5 cells, 5, 10, or 20 μM, TGF-β1 (10 ng/mL), 70 hours. Format: cell-based. An excerpt: (§1) α-SMA protein is a marker of activated myofibroblasts, which are the main effector cells of fibrosis, myofibroblasts with increased α-SMA expression are known to produce a fibrotic protein such as collagen type 1 and cause fibrosis. Therefore, in this example, it was confirmed whether the compound according to the present invention is effective in inhibiting fibrosis by reducing the expression of α-SMA and other pro-fibrotic factors (COL1A1, COL4A1, fibronectin, and p-SMAD2).
(§2) Specifically, lung tissue-derived fibroblasts, MRC5 cells, were treated with Compound 59 according to the present invention (5, 10, or 20 μM), nintedanib (1 μM), or DMSO, and then 2 hours later, treated with TGF-β1 (10 ng/mL). After 70 hours, the cells were lysed in RIPA buffer (50 mM Tris-HCl, 150 mM NaCl, 1% NP-40, 0.5% sodium deoxycholate, 0.1% SDS, protease inhibitor & phosphatase inhibitor cocktail, pH 8.0), which had been cooled to 4° C. The cell lysate was centrifuged at 4° C. at a speed of 15,000×g for 30 minutes, and then the supernatant was collected. After matching the total amount of proteins in the supernatant of each sample (15 to 30 μg), the proteins were separated according to molecular weight using SDS polyacrylamide gel electrophoresis (SDS-PAGE). […]
Background: A western blot detects proteins with antibodies after separation by electrophoresis.

The next test has as its system COL1A1. The test can be described thus: COL1A1 protein level by Western blotting in TGF-β1-treated fibroblasts. In kind it is cell-based. Conditions: MRC5 cells, 5, 10, or 20 μM, TGF-β1 (10 ng/mL), 70 hours.
Text: as §1, §2

Test [2] has as its system α-SMA. The test can be described thus: α-SMA protein level by Western blotting in TGF-β1-treated fibroblasts. In kind it is cell-based. Conditions: MRC5 cells, 5, 10, or 20 μM, TGF-β1 (10 ng/mL), 70 hours.
Text: as §1, §2

Another test has as its system COL4A1. The test can be described thus: COL4A1 protein level by Western blotting in TGF-β1-treated fibroblasts. In kind it is cell-based. Conditions: MRC5 cells, 5, 10, or 20 μM, TGF-β1 (10 ng/mL), 70 hours.
Text: as §1, §2

For the next test, the system named is p-SMAD2. The test can be described thus: phosphorylation of SMAD2 by Western blotting in TGF-β1-treated fibroblasts. In kind it is cell-based. As to conditions: TGF-β1 (10 ng/mL), 70 hours.
Text: as §1, §2

For test [3] the following is noted: clinical use in IPF patients; cited from earlier work.

Molecules are shown by their SMILES. Where only a bound is given, the exact number is not on record here.

As for `CC(C(=O)N1CCN(c2ccccc2)c2cc(F)ccc21)N1CCCCC1` (stereo not shown) [Compound 12, 1-(6-fluoro-4-phenyl-3,4-dihydroquinoxaline-1(2H)-yl)-2-(piperidin-1-yl)propan-1-one], the “intracellular F-actin polymerization” value in the test on MCR5 cell line is “significantly reduced”. Moreover, the “actin polymerization activity (maximum polymerization rate)” value (“actin polymerization activity” for short) in the test with Arp2/3 complex is “decreased compared to the control”. Moreover, the inhibition at 10 µM in the test with α-SMA [1] was no less than 70%.

As to `CC(C(=O)N1CCN(c2ccccc2)c2ccccc21)N1CCCC[C@H]1C` (stereo partly drawn) [Compound 59, 2-((R)-2-methylpiperidin-1-yl)-1-(4-phenyl-3,4-dihydroquinoxaline-1(2H)-yl)propan-1-one phosphate], the fibronectin protein level entry in the test with fibronectin was “greatly decreased”. Besides, the “intracellular F-actin polymerization” value in the test with MCR5 cell line is “significantly reduced”. Besides, in the test with COL1A1, the COL1A1 protein level result is on record as “greatly decreased”. For the same compound, the “actin polymerization activity” value in the test on Arp2/3 complex is given as “decreased compared to the control”. Further, the α-SMA protein level result in the test with α-SMA [2] is reported as “significantly decreased”. In the test on COL4A1, the COL4A1 protein level entry is given as “greatly decreased”. Also, the “phosphorylation of SMAD2 protein” value with p-SMAD2 (MRC5 cells, 5, 10, or 20 μM) is on record as “decreased in a concentration-dependent manner”. In addition, the “phosphorylation of SMAD2 protein compared to nintedanib” value in the test on p-SMAD2 (MRC5 cells, compared to nintedanib (1 μM)) is listed as “reduced to a greater extent”. For the same compound, the inhibition at 10 µM in the test on α-SMA [1] was less than 50%.

Turning to `Cc1ccc(=O)n(-c2ccccc2)c1` [Pirfenidone], in test [3], the “improvement in lung function (treatment effect) in IPF” value is on record as “about 10%”.

In the test on α-SMA [1], `O=C(CCN1CCCCC1)N1CCN(C2CCCCC2)c2ccccc21` [Compound 187, 1-(4-cyclohexyl-3,4-dihydroquinoxaline-1(2H)-yl)-3-(piperidin-1-yl)propan-1-one] showed an inhibition at 10 µM of no less than 70%.

As for `O=C(CCN1CCCCC1)N1CCN(c2ccc(F)cc2)c2cc(F)ccc21` [Compound 38, 1-(6-fluoro-4-(4-fluorophenyl)-3,4-dihydroquinoxaline-1(2H)-yl)-3-(piperidin-1-yl)propan-1-one], the “intracellular F-actin polymerization” value in the test with MCR5 cell line was “significantly reduced”. In addition, in the test with Arp2/3 complex, the “actin polymerization activity” value is listed as “decreased compared to the control”. The compound further showed an inhibition at 10 µM in the test with α-SMA [1] of no less than 70%.

`O=C(CN1CCCC1)N1CCN(c2cccc(Cl)c2)c2ccccc21` [Compound 138, 1-(4-(3-chlorophenyl)-3,4-dihydroquinoxaline-1(2H)-yl)-2-(pyrrolidin-1-yl)ethan-1-one] displayed an inhibition at 10 µM in the test on α-SMA [1] of no less than 70%.

In the test with α-SMA [1], `CN1CCN(C(=O)CN2CCN(c3ccccc3)c3ccccc32)CC1` [Compound 73, 1-(4-methylpiperazin-1-yl)-2-(4-phenyl-3,4-dihydroquinoxaline-1(2H)-yl)ethan-1-one] registered an inhibition at 10 µM of 50 to 70%.

Take `O=C(CCN1CCCCC1)N1CCN(Cc2ccccn2)c2ccccc21` [Compound 115, 3-(piperidin-1-yl)-1-(4-(pyridin-2-ylmethyl)-3,4-dihydroquinoxaline-1(2H)-yl)propan-1-one]: the inhibition at 10 µM in the test on α-SMA [1] is less than 50%.

Turning to `O=C(CCN1CCCC1)N1CCN(c2ccccc2Cl)c2ccccc21` [Compound 125, 1-(4-(2-chlorophenyl)-3,4-dihydroquinoxaline-1(2H)-yl)-3-(pyrrolidin-1-yl)propan-1-one], the inhibition at 10 µM with α-SMA [1] lay within 50 to 70%.

`CC(C(=O)N1CCN(c2ccc(F)cc2)c2ccccc21)N1CCN(C)CC1` (stereo not shown) [Compound 34, 1-(4-(4-fluorophenyl)-3,4-dihydroquinoxaline-1(2H)-yl)-2-(4-methylpiperazin-1-yl)propan-1-one] had an inhibition at 10 µM in the test with α-SMA [1] of less than 50%.

(Values after patent publication US20250002464A1, “NOVEL COMPOUND AND PHARMACEUTICAL COMPOSITION COMPRISING SAME” (SAPIENSBIO INC., priority 2021, published 2025).)
